Laboratory results reported in PMC6173183 (International Journal of Nanomedicine, 2018).

Test system: in vitro BBB model (HBMEC)
Assay: BBB penetration in vitro: transport ratio across HBMEC transwell model
Format: in vitro ADME, human
Settings: 240 minutes, FITC 10 μmol⋅L^−1

fluorescein isothiocyanate [FITC]
BBB transportation ratio: 4.53%
